Results reported in ChEMBL document CHEMBL1149703 (Bioorg Med Chem Lett, 2007).
Each block holds one compound with its values, some of them ahead of it.

Assays:
[1] = target: Ribosomal protein S6 kinase alpha-1 (Homo sapiens) (UniProt Q15418); test: Inhibition of RSK1 assessed as residual activity at 0.01 uM
[2] = target: RAC-alpha serine/threonine-protein kinase (Homo sapiens) (UniProt P31749); test: Inhibition of PKBalpha assessed as residual activity at 1 uM
[3] = target: Serine/threonine-protein kinase pim-2 (Homo sapiens) (UniProt Q9P1W9); test: Inhibition of PIM2 assessed as residual activity at 1 uM
[4] = target: Aurora kinase B (Homo sapiens) (UniProt Q96GD4); test: Inhibition of AURORA B assessed as residual activity at 0.01 uM
[5] = target: Ribosomal protein S6 kinase alpha-1 (Homo sapiens) (UniProt Q15418); test: Inhibition of RSK1 assessed as residual activity at 1 uM
[6] = target: Serine/threonine-protein kinase N2 (Homo sapiens) (UniProt Q16513); test: Inhibition of PRK2 assessed as residual activity at 1 uM
[7] = target: Serine/threonine-protein kinase Sgk1 (Homo sapiens) (UniProt O00141); test: Inhibition of SGK1 assessed as residual activity at 1 uM
[8] = target: Serine/threonine-protein kinase Chk1 (Homo sapiens) (UniProt O14757); test: Inhibition of CHK1 assessed as residual activity at 0.01 uM
[9] = target: Proto-oncogene tyrosine-protein kinase Src (Homo sapiens) (UniProt P12931); test: Inhibition of Src assessed as residual activity at 0.01 uM
[10] = target: Ribosomal protein S6 kinase beta-1 (Homo sapiens) (UniProt P23443); test: Inhibition of S6K1 assessed as residual activity at 0.01 uM
[11] = target: Protein kinase C zeta type (Homo sapiens) (UniProt Q05513); test: Inhibition of PKCzeta assessed as residual activity at 0.01 uM
[12] = target: Tyrosine-protein kinase Lck (Homo sapiens) (UniProt P06239); test: Inhibition of Lck assessed as residual activity at 1 uM
[13] = target: Serine/threonine-protein kinase Sgk1 (Homo sapiens) (UniProt O00141); test: Inhibition of SGK1 assessed as residual activity at 0.01 uM
[14] = target: RAC-beta serine/threonine-protein kinase (Homo sapiens) (UniProt P31751); test: Inhibition of PKBbeta assessed as residual activity at 1 uM
[15] = target: Proto-oncogene tyrosine-protein kinase Src (Homo sapiens) (UniProt P12931); test: Inhibition of Src assessed as residual activity at 1 uM
[16] = target: Tyrosine-protein kinase CSK (Homo sapiens) (UniProt P41240); test: Inhibition of CSK assessed as residual activity at 1 uM
[17] = target: MAP kinase-activated protein kinase 5 (Homo sapiens) (UniProt Q8IW41); test: Inhibition of PRAK assessed as residual activity at 1 uM
[18] = target: Serine/threonine-protein kinase Nek6 (Homo sapiens) (UniProt Q9HC98); test: Inhibition of NEK6 assessed as residual activity at 1 uM; type: functional
[19] = target: T1, AMP-activated protein kinase, AMPK (Homo sapiens) (UniProt P54646+O43741+P54619+Q9UGJ0+Q9Y478+Q13131+Q9UGI9); test: Inhibition of AMPK assessed as residual activity at 1 uM; type: protein-complex assay
[20] = target: Mitogen-activated protein kinase 10 (Homo sapiens) (UniProt P53779); test: Inhibition of JNK3 assessed as residual activity at 1 uM
[21] = target: RAC-beta serine/threonine-protein kinase (Homo sapiens) (UniProt P31751); test: Inhibition of PKBbeta assessed as residual activity at 0.01 uM
[22] = target: Mitogen-activated protein kinase 10 (Homo sapiens) (UniProt P53779); test: Inhibition of JNK3 assessed as residual activity at 0.01 uM
[23] = target: 3-phosphoinositide-dependent protein kinase 1 (Homo sapiens) (UniProt O15530); test: Inhibition of PDK1 assessed as residual activity at 0.01 uM
[24] = target: Serine/threonine-protein kinase D1 (Homo sapiens) (UniProt Q15139); test: Inhibition of PKD1 assessed as residual activity at 0.01 uM
[25] = target: Tyrosine-protein kinase CSK (Homo sapiens) (UniProt P41240); test: Inhibition of CSK assessed as residual activity at 0.01 uM
Homo sapiens [26] = organism: Homo sapiens; test: Inhibition of CDK2/cyclin A assessed as residual activity at 0.01 uM
[27] = target: 3-phosphoinositide-dependent protein kinase 1 (Homo sapiens) (UniProt O15530); test: Inhibition of PDK1 assessed as residual activity at 1 uM
[28] = target: MAP kinase-activated protein kinase 3 (Homo sapiens) (UniProt Q16644); test: Inhibition of MAPKAP K3 assessed as residual activity at 0.01 uM
[29] = target: Calcium/calmodulin-dependent protein kinase type 1 (Homo sapiens) (UniProt Q14012); test: Inhibition of CAMK1 assessed as residual activity at 1 uM
[30] = target: Serine/threonine-protein kinase pim-2 (Homo sapiens) (UniProt Q9P1W9); test: Inhibition of PIM2 assessed as residual activity at 0.01 uM
[31] = target: Glycogen synthase kinase-3 beta (Homo sapiens) (UniProt P49841); test: Inhibition of GSK3-beta assessed as residual activity at 0.01 uM
[32] = target: RAC-alpha serine/threonine-protein kinase (Homo sapiens) (UniProt P31749); test: Inhibition of PKBalpha assessed as residual activity at 0.01 uM
[33] = target: Mitogen-activated protein kinase 3 (Homo sapiens) (UniProt P27361); test: Inhibition of ERK1 assessed as residual activity at 1 uM
[34] = target: Aurora kinase B (Homo sapiens) (UniProt Q96GD4); test: Inhibition of AURORA B assessed as residual activity at 1 uM
[35] = target: Serine/threonine-protein kinase pim-1 (Homo sapiens) (UniProt P11309); test: Inhibition of PIM1 assessed as residual activity at 0.01 uM
[36] = target: Protein kinase C zeta type (Homo sapiens) (UniProt Q05513); test: Inhibition of PKCzeta assessed as residual activity at 1 uM
[37] = target: Calcium/calmodulin-dependent protein kinase type 1 (Homo sapiens) (UniProt Q14012); test: Inhibition of CAMK1 assessed as residual activity at 0.01 uM
[38] = target: Ribosomal protein S6 kinase beta-1 (Homo sapiens) (UniProt P23443); test: Inhibition of S6K1 assessed as residual activity at 1 uM
[39] = target: T2, Casein kinase II (Homo sapiens) (UniProt P67870+P68400+P19784); test: Inhibition of CK2 assessed as residual activity at 1 uM; type: protein-complex assay
[40] = target: T1, AMP-activated protein kinase, AMPK (Homo sapiens); test: Inhibition of AMPK assessed as residual activity at 0.01 uM; type: protein-complex assay
[41] = target: Serine/threonine-protein kinase pim-1 (Homo sapiens) (UniProt P11309); test: Inhibition of PIM1 assessed as residual activity at 1 uM
[42] = target: Serine/threonine-protein kinase D1 (Homo sapiens) (UniProt Q15139); test: Inhibition of PKD1 assessed as residual activity at 1 uM
[43] = target: Dual specificity tyrosine-phosphorylation-regulated kinase 3 (Homo sapiens) (UniProt O43781); test: Inhibition of DYRK3 assessed as residual activity at 1 uM
[44] = target: Maternal embryonic leucine zipper kinase (Homo sapiens) (UniProt Q14680); test: Inhibition of MELK assessed as residual activity at 0.01 uM
[45] = target: Protein kinase C alpha type (Homo sapiens) (UniProt P17252); test: Inhibition of PKCalpha assessed as residual activity at 0.01 uM
Homo sapiens [46] = organism: Homo sapiens; test: Inhibition of PKA assessed as residual activity at 0.01 uM
[47] = target: Glycogen synthase kinase-3 beta (Homo sapiens) (UniProt P49841); test: Inhibition of GSK3-beta assessed as residual activity at 1 uM
[48] = target: Ribosomal protein S6 kinase alpha-3 (Homo sapiens) (UniProt P51812); test: Inhibition of RSK2 assessed as residual activity at 1 uM
[49] = target: Serine/threonine-protein kinase Chk1 (Homo sapiens) (UniProt O14757); test: Inhibition of CHK1 assessed as residual activity at 1 uM
[50] = target: MAP kinase-activated protein kinase 5 (Homo sapiens) (UniProt Q8IW41); test: Inhibition of PRAK assessed as residual activity at 0.01 uM
[51] = target: Maternal embryonic leucine zipper kinase (Homo sapiens) (UniProt Q14680); test: Inhibition of MELK assessed as residual activity at 1 uM
[52] = target: MAP kinase-activated protein kinase 3 (Homo sapiens) (UniProt Q16644); test: Inhibition of MAPKAP K3 assessed as residual activity at 1 uM
[53] = target: Serine/threonine-protein kinase PAK 5 (Homo sapiens) (UniProt Q9P286); test: Inhibition of PAK5 assessed as residual activity at 1 uM
[54] = target: Serine/threonine-protein kinase PAK 5 (Homo sapiens) (UniProt Q9P286); test: Inhibition of PAK5 assessed as residual activity at 0.01 uM
Homo sapiens [55] = organism: Homo sapiens; test: Inhibition of PKA assessed as residual activity at 1 uM
[56] = target: Serine/threonine-protein kinase N2 (Homo sapiens) (UniProt Q16513); test: Inhibition of PRK2 assessed as residual activity at 0.01 uM
Homo sapiens [57] = organism: Homo sapiens; test: Inhibition of CDK2/cyclin A assessed as residual activity at 1 uM
[58] = target: Mitogen-activated protein kinase 3 (Homo sapiens) (UniProt P27361); test: Inhibition of ERK1 assessed as residual activity at 0.01 uM
[59] = target: Dual specificity tyrosine-phosphorylation-regulated kinase 3 (Homo sapiens) (UniProt O43781); test: Inhibition of DYRK3 assessed as residual activity at 0.01 uM
[60] = target: T2, Casein kinase II (Homo sapiens); test: Inhibition of CK2 assessed as residual activity at 0.1 uM; type: protein-complex assay
[61] = target: Ribosomal protein S6 kinase alpha-3 (Homo sapiens) (UniProt P51812); test: Inhibition of RSK2 assessed as residual activity at 0.01 uM
[62] = target: Serine/threonine-protein kinase Nek6 (Homo sapiens) (UniProt Q9HC98); test: Inhibition of NEK6 assessed as residual activity at 0.01 uM
[63] = target: Protein kinase C alpha type (Homo sapiens) (UniProt P17252); test: Inhibition of PKCalpha assessed as residual activity at 1 uM
[64] = target: Tyrosine-protein kinase Lck (Homo sapiens) (UniProt P06239); test: Inhibition of Lck assessed as residual activity at 0.01 uM
[65] = target: cAMP-dependent protein kinase catalytic subunit alpha (Homo sapiens, UniProt P17612); test: Inhibition of cAPK Calpha in presence of 1 mM ATP

Sequence of Serine/threonine-protein kinase D1 (Homo sapiens) (Q15139 whole entry): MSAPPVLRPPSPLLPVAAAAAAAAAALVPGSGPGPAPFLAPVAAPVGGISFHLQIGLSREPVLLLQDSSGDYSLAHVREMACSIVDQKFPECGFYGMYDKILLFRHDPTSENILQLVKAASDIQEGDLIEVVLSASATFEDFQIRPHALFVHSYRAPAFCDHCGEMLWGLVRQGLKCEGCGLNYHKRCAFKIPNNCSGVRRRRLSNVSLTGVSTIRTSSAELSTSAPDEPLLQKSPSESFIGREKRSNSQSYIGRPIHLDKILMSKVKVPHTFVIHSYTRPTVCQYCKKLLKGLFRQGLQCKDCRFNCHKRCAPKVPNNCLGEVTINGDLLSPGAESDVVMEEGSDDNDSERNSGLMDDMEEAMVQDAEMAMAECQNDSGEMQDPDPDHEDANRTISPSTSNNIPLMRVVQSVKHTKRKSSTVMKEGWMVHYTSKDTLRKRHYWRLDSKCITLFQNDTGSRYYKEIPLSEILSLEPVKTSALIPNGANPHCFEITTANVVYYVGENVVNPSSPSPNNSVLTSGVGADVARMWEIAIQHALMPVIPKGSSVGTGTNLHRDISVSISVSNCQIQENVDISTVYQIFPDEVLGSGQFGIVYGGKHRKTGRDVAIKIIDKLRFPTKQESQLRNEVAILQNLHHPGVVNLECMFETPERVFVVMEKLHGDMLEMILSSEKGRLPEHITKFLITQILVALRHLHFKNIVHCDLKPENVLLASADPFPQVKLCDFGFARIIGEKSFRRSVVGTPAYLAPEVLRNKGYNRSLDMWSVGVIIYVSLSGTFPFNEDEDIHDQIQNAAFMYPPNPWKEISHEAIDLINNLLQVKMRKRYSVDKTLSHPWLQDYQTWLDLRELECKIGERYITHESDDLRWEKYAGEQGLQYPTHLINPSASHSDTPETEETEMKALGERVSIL
Sequence of MAP kinase-activated protein kinase 3 (Homo sapiens) (Q16644 whole entry, looked up): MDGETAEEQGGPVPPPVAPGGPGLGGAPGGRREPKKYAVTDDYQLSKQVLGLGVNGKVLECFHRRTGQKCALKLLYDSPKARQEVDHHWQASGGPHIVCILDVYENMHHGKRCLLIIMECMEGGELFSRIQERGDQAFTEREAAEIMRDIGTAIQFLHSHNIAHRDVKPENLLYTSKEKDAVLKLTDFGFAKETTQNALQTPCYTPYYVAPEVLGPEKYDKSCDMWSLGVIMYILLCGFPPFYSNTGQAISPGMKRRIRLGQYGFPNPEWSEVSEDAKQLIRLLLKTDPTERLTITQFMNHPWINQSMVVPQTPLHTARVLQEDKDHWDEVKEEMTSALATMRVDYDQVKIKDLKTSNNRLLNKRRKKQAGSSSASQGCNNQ
Sequence of Serine/threonine-protein kinase pim-1 (Homo sapiens) (P11309 whole entry, looked up): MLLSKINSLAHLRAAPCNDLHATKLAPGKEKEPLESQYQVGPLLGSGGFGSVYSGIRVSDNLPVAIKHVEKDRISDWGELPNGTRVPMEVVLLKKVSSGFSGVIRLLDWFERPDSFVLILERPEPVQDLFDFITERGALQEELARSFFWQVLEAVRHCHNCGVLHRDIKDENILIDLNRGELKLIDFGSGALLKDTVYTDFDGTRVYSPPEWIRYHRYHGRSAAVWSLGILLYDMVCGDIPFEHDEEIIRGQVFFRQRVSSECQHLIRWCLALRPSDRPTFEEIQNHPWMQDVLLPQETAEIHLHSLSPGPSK
Sequence of MAP kinase-activated protein kinase 5 (Homo sapiens) (Q8IW41 whole entry): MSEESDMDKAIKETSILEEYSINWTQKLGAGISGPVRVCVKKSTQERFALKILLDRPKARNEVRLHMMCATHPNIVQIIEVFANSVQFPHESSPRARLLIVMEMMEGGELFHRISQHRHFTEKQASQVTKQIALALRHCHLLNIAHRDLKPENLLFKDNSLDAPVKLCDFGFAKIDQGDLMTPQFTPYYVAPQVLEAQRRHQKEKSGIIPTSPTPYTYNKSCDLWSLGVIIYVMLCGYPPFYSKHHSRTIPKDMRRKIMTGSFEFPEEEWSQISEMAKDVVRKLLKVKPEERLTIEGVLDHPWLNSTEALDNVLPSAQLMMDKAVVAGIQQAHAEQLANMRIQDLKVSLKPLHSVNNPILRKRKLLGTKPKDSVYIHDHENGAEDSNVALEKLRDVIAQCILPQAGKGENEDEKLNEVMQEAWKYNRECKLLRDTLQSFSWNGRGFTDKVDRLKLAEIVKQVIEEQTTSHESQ
Sequence of Calcium/calmodulin-dependent protein kinase type 1 (Homo sapiens) (Q14012 whole entry, looked up): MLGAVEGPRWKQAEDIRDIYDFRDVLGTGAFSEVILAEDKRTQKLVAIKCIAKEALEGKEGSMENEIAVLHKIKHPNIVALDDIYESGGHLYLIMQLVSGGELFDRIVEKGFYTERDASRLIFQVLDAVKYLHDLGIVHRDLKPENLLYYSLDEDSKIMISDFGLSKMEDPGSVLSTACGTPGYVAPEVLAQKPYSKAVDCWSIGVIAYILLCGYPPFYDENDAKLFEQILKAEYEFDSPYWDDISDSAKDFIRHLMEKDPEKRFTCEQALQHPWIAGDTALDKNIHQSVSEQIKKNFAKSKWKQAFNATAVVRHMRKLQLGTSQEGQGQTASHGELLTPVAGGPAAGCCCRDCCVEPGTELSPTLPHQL
Sequence of Aurora kinase B (Homo sapiens) (Q96GD4 whole entry): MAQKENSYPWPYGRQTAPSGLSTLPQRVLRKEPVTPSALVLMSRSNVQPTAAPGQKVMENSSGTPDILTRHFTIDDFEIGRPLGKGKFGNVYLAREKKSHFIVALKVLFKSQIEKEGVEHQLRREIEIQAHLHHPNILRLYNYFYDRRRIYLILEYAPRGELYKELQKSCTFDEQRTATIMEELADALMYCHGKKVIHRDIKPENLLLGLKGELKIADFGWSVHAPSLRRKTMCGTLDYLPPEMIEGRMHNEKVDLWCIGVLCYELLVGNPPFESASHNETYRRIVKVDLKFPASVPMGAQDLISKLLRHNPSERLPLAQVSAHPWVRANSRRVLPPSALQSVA
Sequence of Serine/threonine-protein kinase N2 (Homo sapiens) (Q16513 whole entry, looked up): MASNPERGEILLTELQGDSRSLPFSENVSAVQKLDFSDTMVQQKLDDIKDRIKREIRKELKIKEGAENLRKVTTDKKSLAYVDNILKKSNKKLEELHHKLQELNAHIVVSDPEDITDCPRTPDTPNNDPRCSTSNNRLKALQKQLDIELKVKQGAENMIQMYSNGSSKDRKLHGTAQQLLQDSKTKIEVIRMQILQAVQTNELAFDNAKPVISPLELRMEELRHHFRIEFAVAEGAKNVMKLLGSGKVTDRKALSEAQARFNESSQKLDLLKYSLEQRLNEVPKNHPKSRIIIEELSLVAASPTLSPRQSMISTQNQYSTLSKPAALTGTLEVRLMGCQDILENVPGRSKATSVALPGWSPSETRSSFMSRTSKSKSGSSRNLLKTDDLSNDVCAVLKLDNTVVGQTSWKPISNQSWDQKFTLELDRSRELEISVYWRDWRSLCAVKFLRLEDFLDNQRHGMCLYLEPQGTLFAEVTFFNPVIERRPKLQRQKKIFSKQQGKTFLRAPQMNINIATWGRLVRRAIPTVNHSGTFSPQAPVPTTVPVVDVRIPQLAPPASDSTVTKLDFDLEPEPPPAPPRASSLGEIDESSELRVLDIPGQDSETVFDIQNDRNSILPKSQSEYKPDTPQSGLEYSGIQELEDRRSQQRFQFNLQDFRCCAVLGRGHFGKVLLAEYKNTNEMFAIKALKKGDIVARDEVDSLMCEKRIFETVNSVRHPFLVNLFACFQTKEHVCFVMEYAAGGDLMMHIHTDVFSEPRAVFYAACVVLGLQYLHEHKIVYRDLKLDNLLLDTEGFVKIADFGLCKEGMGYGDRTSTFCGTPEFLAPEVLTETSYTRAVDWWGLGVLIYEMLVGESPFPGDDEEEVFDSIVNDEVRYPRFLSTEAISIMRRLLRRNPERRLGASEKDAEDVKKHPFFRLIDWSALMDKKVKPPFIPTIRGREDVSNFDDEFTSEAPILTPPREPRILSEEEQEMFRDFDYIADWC
Sequence of RAC-alpha serine/threonine-protein kinase (Homo sapiens) (P31749 whole entry): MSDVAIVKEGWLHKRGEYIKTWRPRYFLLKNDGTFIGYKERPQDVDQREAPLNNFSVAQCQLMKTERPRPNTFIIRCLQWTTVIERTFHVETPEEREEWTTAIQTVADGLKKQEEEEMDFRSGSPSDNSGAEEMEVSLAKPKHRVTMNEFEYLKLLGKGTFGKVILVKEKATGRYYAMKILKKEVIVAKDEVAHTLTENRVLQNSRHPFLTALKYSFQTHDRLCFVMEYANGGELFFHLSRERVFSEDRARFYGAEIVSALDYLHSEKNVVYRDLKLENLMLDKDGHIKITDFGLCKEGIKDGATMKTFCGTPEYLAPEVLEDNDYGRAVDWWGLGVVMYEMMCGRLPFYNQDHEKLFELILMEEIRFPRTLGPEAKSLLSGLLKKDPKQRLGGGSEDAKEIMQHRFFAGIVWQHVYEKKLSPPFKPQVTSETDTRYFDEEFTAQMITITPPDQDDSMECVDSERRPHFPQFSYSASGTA

Activity [1]: 98%
Activity [2]: 32%
Activity [3]: 20%
Activity [4]: 76%
Activity [5]: 98%
Activity [6]: 3%
Activity [7]: 19%
Activity [8]: 84%
Activity [9]: 85%
Activity [10]: 81%
Activity [11]: 83%
Activity [12]: 63%
Activity [13]: 40%
Activity [14]: 2%
Activity [15]: 84%
Activity [16]: 77%
Activity [17]: 96%
Activity [18]: 111%
Activity [19]: 12%
Activity [20]: 104%
Activity [21]: 74%
Activity [22]: 103%
Activity [23]: 76%
Activity [24]: 81%
Activity [25]: 97%
Activity (Homo sapiens [26]): 103%
Activity [27]: 28%
Activity [28]: 97%
Activity [29]: 19%
Activity [30]: 103%
Activity [31]: 82%
Activity [32]: 25%
Activity [33]: 84%
Activity [34]: 72%
Activity [35]: 92%
Activity [36]: 33%
Activity [37]: 62%
Activity [38]: 7%
Activity [39]: 88%
Activity [40]: 70%
Activity [41]: 6%
Activity [42]: 73%
Activity [43]: 51%
Activity [44]: 86%
Activity [45]: 96%
Activity (Homo sapiens [46]): 7%
Activity [47]: 88%
Activity [48]: 28%
Activity [49]: 27%
Activity [50]: 88%
Activity [51]: 10%
Activity [52]: 91%
Activity [53]: 10%
Activity [54]: 71%
Activity (Homo sapiens [55]): 0%
Activity [56]: 59%
Activity (Homo sapiens [57]): 114%
Activity [58]: 82%
Activity [59]: 81%
Activity [60]: 86%
Activity [61]: 91%
Activity [62]: 101%
Activity [63]: 30%
Activity [64]: 86%
Compound: N=C(N)NCCC[C@H](NC(=O)[C@H](CCCNC(=N)N)NC(=O)[C@H](CCCNC(=N)N)NC(=O)[C@H](CCCNC(=N)N)NC(=O)[C@H](CCCNC(=N)N)NC(=O)[C@H](CCCNC(=N)N)NC(=O)CCCCCNC(=O)[C@@H]1C[C@@H](O)[C@H](n2cnc3c(N)ncnc32)C1)C(N)=O

IC50 [65]: 168 µM
Compound: COC(=O)[C@@H]1C[C@@H](O)[C@H](n2cnc3c(N)ncnc32)C1

IC50 [65]: > 1000 µM
Compound: COC(=O)[C@H]1C[C@H](O)[C@@H](n2cnc3c(N)ncnc32)C1
